Data from patent publication US5104980A, “Chromogenic dibenzoxazepinone and dibenzothiazepinone enzyme substrates” (Miles Inc., priority 1989, dated 1992).

System: β-galactosidase
Assay: cleavage of the chromogenic substrate by β-galactosidase in 50 mM phosphate buffer
Assay type: biochemical
Settings: 50 mM phosphate buffer at pH 7.4 containing 5 mM MgCl2; in the presence of β-galactosidase
Method: When dissolved in 50 mM phosphate buffer at pH 7.4 containing 5 mM magnesium chloride (MgCl2) compound (23)+(24) (mixture) had λmax of 454 nm (^ε =22,000) and 344 nm (^ε =14,000).

Substance: 8-β-D-Galactopyranosyloxy-11-methyl-11H-dibenz[b,e] [1,4]oxazepin-1-one (23) and 2-β-D-galactopyranosyloxy-11-methyl-11H-dibenz[b,e][1,4]oxazepin-8-one (24) [(23)+(24)]
- Km: 75 µM
- rate (Kcat) of cleavage of the substrate to (20): 1.32×10^4 mol. min^-1 /mol. active site
